What was measured:
woolly cupgrass = test: Test C pre-/postemergence herbicide test; assay type: in vivo, Eriochloa villosa
Summary of the method: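 Emerged plants at the 1- to 4-leaf stage (2–18 cm), or freshly planted seeds, received test chemicals in a non-phytotoxic solvent mixture with surfactant. Response was visually scored against controls after 12 to 14 days in the greenhouse, on a 0 (no effect) to 100 (complete control) scale.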

bermudagrass = test: Test E pre-/postemergence herbicide test; assay type: in vivo, Cynodon dactylon
From the text: (§1) Seeds of plant species selected from bipinnate beggarticks (Bidens bipinnata L.), hairy beggarticks (Bidens radiata Thuill.), bermudagrass (Cynodon dactylon (L.) Pers.), Surinam grass (Urochloa decumbens (Staph) R. D. Webster, previously named Brachiaria decumbens Stapf), large crabgrass (Digitaria sanguinalis (L.) Scop.), green foxtail (Setaria viridis (L.) P. Beauv.), goosegrass (Eleusine indica (L.) Gaertn.), johnsongrass (Sorghum halepense (L.) Pers.), kochia (Kochia scoparia (L.) Schrad.), pitted morningglory (Ipomoea lacunosa L.), purple nutsedge (Cyperus rotundus L.), common ragweed (Ambrosia elatior L.), mustard (Brassica nigra (L.) W. D. J. Koch), guineagrass (Panicum maximum Jacq.), dallisgrass (Paspalum dilatatum Poir.), barnyardgrass (Echinochloa crus-galli (L). P. Beauv.), southern sandbur (Cenchrus echinatus L.), common sowthistle (Sonchus oleraceous L.), prickly sida (Sida spinosa L.), Italian ryegrass (Lolium multiflorum Lam.), common purslane (Portulaca oleracea L.), broadleaf signalgrass (Brachiaria platyphylla (Griseb.) Nash), common groundsel (Senecio vulgaris L.), common chickweed (Stellaria media (L.) Vill/Cyr.), tropical spiderwort (Commelina benghalensis L.), annual bluegrass (Poa annua L.), downy bromegrass (Bromus tectorum L.), itchgrass (Rottboellia cochinchinensis (L.) L.f.), quackgrass (Elytrigia repens (L.) Nevski), Canada horseweed (Erigeron Canadensis L.), field bindweed (Convolvulus arvensis L.), spotted spurge (Euphorbia maculata L.), common mallow (Malva sylvestris (=s silvestris) L.), and Russian thistle (Salsola kali L. ssp. Ruthenica (Iljin) Soo) were planted and treated preemergence with test chemicals formulated in a non-phytotoxic solvent mixture which included a surfactant.
(§2) At the same time, plants selected from these weed species were treated with postemergence applications of some of the test chemicals formulated in the same manner. Plants ranged in height from 2 to 18 cm (1- to 4-leaf stage) for postemergence treatments. Treated plants and controls were maintained in a greenhouse for 12 to 14 days, after which time all species were compared to controls and visually evaluated. Plant response ratings, summarized in Table E, are based on a scale of 0 to 100 where 0 is no effect and 100 is complete control. A dash (-) response means no test result.

large crabgrass = test: Test E pre-/postemergence herbicide test; assay type: in vivo, Digitaria sanguinalis
From the text: as §1, §2

Italian ryegrass = test: Test E pre-/postemergence herbicide test; assay type: in vivo, Lolium multiflorum
From the text: as §1, §2

redroot pigweed = test: Test A pre-/postemergence herbicide test; assay type: in vivo, Amaranthus retroflexus
Summary of the method: (§3)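 Both application timings were run together: directed soil spray over freshly planted seeds in sandy loam, and runoff spray onto 2–10 cm seedlings. Evaluation after ~10 days in greenhouse used a 0–100 visual scale versus untreated controls.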

velvetleaf = test: Test A pre-/postemergence herbicide test; assay type: in vivo, Abutilon theophrasti
Summary of the method: as §3

[1] = Preemergence, 500 g ai/ha, scale 0 to 100, 0 no effect, 100 complete control
[2] = Postemergence, 500 g ai/ha, scale 0 to 100
[3] = Postemergence, 250 g ai/ha, scale 0 to 100
[4] = Preemergence, 62 g ai/ha, scale 0 to 100
[5] = Preemergence, 125 g ai/ha, scale 0 to 100
[6] = Preemergence, 250 g ai/ha, scale 0 (no effect) to 100 (complete control)
[7] = Preemergence, 500 g ai/ha, scale 0 (no effect) to 100 (complete control)
[8] = postemergence, 125 g ai/ha, scale 0 to 100
[9] = postemergence, 62 g ai/ha, scale 0 to 100
[10] = 62 g ai/ha, preemergence, scale 0 to 100
[11] = 125 g ai/ha, scale 0 (no effect) to 100 (complete control), visual, 12 to 14 days, preemergence
[12] = 250 g ai/ha, scale 0-100, preemergence
[13] = Postemergence, 500 g ai/ha, 0 to 100 scale, 0 no effect, 100 complete control
[14] = Postemergence, 2000 g ai/ha, 0 to 100 scale, 0 no effect, 100 complete control
[15] = Preemergence, 2000 g ai/ha, visual rating, 0 to 100 scale (0 no effect, 100 complete control)
[16] = preemergence, 500 g ai/ha, visual injury, 0 to 100 scale (0 no effect, 100 complete control)
[17] = 500 g ai/ha, scale 0 to 100 (0 no effect, 100 complete control), visual, 12 to 14 days, preemergence
[18] = Postemergence, 250 g ai/ha, scale 0 to 100, 0 no effect, 100 complete control

SMILES | Plant response rating, Bermudagrass (bermudagrass; [4]) | Plant response rating, Bermudagrass (bermudagrass; [5]) | Plant response rating, Bermudagrass (bermudagrass; [6]) | Plant response rating, Crabgrass, Large (large crabgrass; [5]) | Plant response rating, Crabgrass, Large (large crabgrass; [6]) | Plant response rating, Ryegrass, Italian (Italian ryegrass; [4]) | Plant response rating, Ryegrass, Italian (Italian ryegrass; [5]) | Plant response rating, Ryegrass, Italian (Italian ryegrass; [6]) | Plant response rating, Cupgrass, Woolly (woolly cupgrass; [10]) | Plant response rating, Cupgrass, Woolly (woolly cupgrass; [11]) | Plant response rating, Cupgrass, Woolly (woolly cupgrass; [12]) | Pigweed plant response rating (redroot pigweed; [13]) | Plant response rating, Pigweed (redroot pigweed; [14]) | Pigweed plant response rating (redroot pigweed; [15]) | Pigweed plant response rating (redroot pigweed; [16]) | Plant response rating, Cupgrass, Woolly (woolly cupgrass; [17]) | Velvetleaf plant response rating (velvetleaf; [13]) | Plant response rating, Velvetleaf (velvetleaf; [14]) | Velvetleaf plant response rating (velvetleaf; [15]) | Velvetleaf plant response rating (velvetleaf; [16]) | further results
CCn1nc(C(C)(C)C)cc1C(=O)Nc1cc(C(=O)N(C)C)ccn1 [Compound 156, 2-[[[3-(1,1-dimethylethyl)-1-ethyl-1H-pyrazol-5-yl]carbonyl]amino]-N,N-dimethyl-4-pyridinecarboxamide] | 95 | 100 | 100 | 90 | 95 | 60 | 95 | 100 | – | – | – | – | – | – | – | – | – | – | – | – | pest or weed control at 62 g/ha (woolly cupgrass; Eriochloa villosa, pre-emergence, 312 h, 62 g ai/ha, preemergence, scale 0 to 100, read-out: Plant response rating, Cupgrass, Woolly): 33%; pest or weed control at 125 g/ha (woolly cupgrass; Eriochloa villosa, pre-emergence, 312 h, 125 g ai/ha, scale 0 (no effect) to 100 (complete control), visual, 12 to 14 days, read-out: Plant response rating, Cupgrass, Woolly): 70%; pest or weed control at 250 g/ha (woolly cupgrass; Eriochloa villosa, pre-emergence, 312 h, 250 g ai/ha, scale 0 to 100 (0 no effect, 100 complete control), visual, 12 to 14 days, read-out: Plant response rating, Cupgrass, Woolly): 80%; Cupgrass, Woolly plant response rating (woolly cupgrass; [1]): 90; Plant response rating, Bermudagrass (bermudagrass; [2]): 98; Plant response rating, Bermudagrass (bermudagrass; [3]): 95; Plant response rating, Bermudagrass (bermudagrass; [7]): 100; Plant response rating, Bermudagrass (bermudagrass; [8]): 95; Plant response rating, Bermudagrass (bermudagrass; [9]): 65; Plant response rating, Crabgrass, Large (large crabgrass; [2]): 98; Plant response rating, Crabgrass, Large (large crabgrass; [3]): 95; Plant response rating, Crabgrass, Large (large crabgrass; [7]): 95; Plant response rating, Crabgrass, Large (large crabgrass; [8]): 80; Plant response rating, Crabgrass, Large (large crabgrass; [9]): 35; Plant response rating, Ryegrass, Italian (Italian ryegrass; [2]): 98; Plant response rating, Ryegrass, Italian (Italian ryegrass; [3]): 98; Plant response rating, Ryegrass, Italian (Italian ryegrass; [7]): 100; Plant response rating, Ryegrass, Italian (Italian ryegrass; [8]): 95; Plant response rating, Ryegrass, Italian (Italian ryegrass; [9]): 90
CCNC(=O)c1ccc(F)c(NC(=O)c2cn(C(C)(C)C)nc2CC)c1 [Compound 193] | 85 | 100 | 100 | 80 | 100 | 20 | 90 | 100 | 10 | 40 | 60 | – | – | – | – | – | – | – | – | – | Cupgrass, Woolly plant response rating (woolly cupgrass; [1]): 70; Plant response rating, Bermudagrass (bermudagrass; [2]): 95; Plant response rating, Bermudagrass (bermudagrass; [3]): 90; Plant response rating, Bermudagrass (bermudagrass; [7]): 100; Plant response rating, Bermudagrass (bermudagrass; [8]): 90; Plant response rating, Bermudagrass (bermudagrass; [9]): 60; Plant response rating, Crabgrass, Large (large crabgrass; [2]): 100; Plant response rating, Crabgrass, Large (large crabgrass; [3]): 100; Plant response rating, Crabgrass, Large (large crabgrass; [4]): 60; Plant response rating, Crabgrass, Large (large crabgrass; [7]): 100; Plant response rating, Crabgrass, Large (large crabgrass; [8]): 80; Plant response rating, Crabgrass, Large (large crabgrass; [9]): 10; Plant response rating, Ryegrass, Italian (Italian ryegrass; [2]): 95; Plant response rating, Ryegrass, Italian (Italian ryegrass; [3]): 95; Plant response rating, Ryegrass, Italian (Italian ryegrass; [7]): 100; Plant response rating, Ryegrass, Italian (Italian ryegrass; [8]): 60; Plant response rating, Ryegrass, Italian (Italian ryegrass; [9]): 30
CCN(CC)C(=O)c1cccc(NC(=O)c2cc(C(C)(C)C)nn2C)n1 [Compound 314] | – | – | – | – | – | – | – | – | 0 | 0 | 0 | 80 | 100 | 90 | 80 | 20 | 20 | 30 | 80 | 40 | –
C=CCNC(=O)c1cccc(NC(=O)c2cc(C(C)(C)C)nn2C)n1 [Compound 318] | – | – | – | – | – | – | – | – | 0 | 0 | 0 | 95 | 100 | 100 | 75 | 10 | 40 | 50 | 80 | 30 | Cupgrass, Woolly plant response rating (woolly cupgrass; [2]): 20; Plant response rating, Cupgrass, Woolly (woolly cupgrass; [18]): 10; Plant response rating, Cupgrass, Woolly (woolly cupgrass; [8]): 0; Plant response rating, Cupgrass, Woolly (woolly cupgrass; [9]): 0
CCn1nc(C(C)(C)C)cc1C(=O)Nc1cc(OC(F)(F)F)ccc1F [Compound 338] | – | – | – | – | – | – | – | – | – | – | – | 70 | 95 | 90 | 55 | – | 40 | 60 | 50 | 20 | Plant response rating, Cupgrass, Woolly (woolly cupgrass; [18]): 0; Plant response rating, Cupgrass, Woolly (woolly cupgrass; Postemergence, 500 g ai/ha, scale 0 to 100, 0 no effect, 100 complete control): 0; Plant response rating, Cupgrass, Woolly (woolly cupgrass; [8]): 0; Plant response rating, Cupgrass, Woolly (woolly cupgrass; [9]): 0
CCc1nn(C(C)C)nc1C(=O)Nc1cccc(C(=O)N2CCCCC2)c1 [Compound 385] | 20 | 60 | 60 | 80 | 80 | 10 | 30 | 60 | 0 | – | 80 | – | – | – | – | 95 | – | – | – | – | Plant response rating (0 = no effect, 100 = complete control), Cupgrass, Woolly (woolly cupgrass; 125 g ai/ha, preemergence): 60; Plant response rating, Crabgrass, Large (large crabgrass; [4]): 80
CCc1nn(C(C)C)nc1C(=O)Nc1cccc(C(=O)N(C)CC)c1 [Compound 386] | – | 80 | 95 | 95 | 95 | – | 60 | 95 | 50 | – | 95 | – | – | – | – | 95 | – | – | – | – | Plant response rating (0 = no effect, 100 = complete control), Cupgrass, Woolly (woolly cupgrass; 125 g ai/ha, preemergence): 90

Reference: patent US20060069132A1, “Azolecarboxamide herbicides” (priority 2004, published 2006)
